Earlier results in patent US12390476B2, “Multiphasic contraceptive regimen for oral combination drug formulation of progestin and estrogen” (priority 2011, dated 2025).

Settings: compared to gestodene, desogestrel and drospirenone

Structure (SMILES): C#C[C@]1(O)CC[C@H]2[C@@H]3CCC4=CC(=O)CC[C@@H]4[C@H]3CC[C@@]21CC [LNG, levonorgestrel]
- incidence of venous thromboembolism (VTE): lowest incidence
